Where “and” joins values, the source holds several entries; their conditions need not be identical. Identical values can stand only once.
How the values were obtained:
Format in all cases: physicochemical
[1] = Absorption properties of the terbium and europium complexes in TRIS/HCl buffer; details: 0.01M TRIS/HCl buffer at pH = 7.0
Text: By way of example, all of the absorption and emission properties of the terbium and europium complexes synthesized from the ligands (I-1) to (I-4) in accordance with the invention are summarized in Table 1 below: […]

[2] = Emission properties: luminescence lifetime and quantum luminescence yield in water and D2O; details: for Emission τ (luminescence lifetime): error estimated ±5%; for Emission φ (quantum luminescence yield): error estimated ±15%
Text: Their optical luminescence properties, the luminescence lifetimes and the brightness properties are exceptional, with quantum yields of about 38% for Tb, 18% for Eu and lifetimes of the excited states of greater than 3 milliseconds for the Tb(I-3) and Tb(I-4) complexes.
By way of example, all of the absorption and emission properties of the terbium and europium complexes synthesized from the ligands (I-1) to (I-4) in accordance with the invention are summarized in Table 1 below:
The parameters φ and τ represent, respectively, the quantum luminescence yields and the luminescence lifetimes. They may be measured in water and in D2O.

[3] = Stability of terbium complexes (luminescence lifetime) in buffers with ligands capable of decomplexing the lanthanide ions; details: for stability: various aqueous media
Procedure: By way of example, the stability of the terbium complexes synthesized from the ligands (I-1) to (I-4) in accordance with the invention is given in Table 2 below. Various buffers in the presence of ligands capable of decomplexing the lanthanide ions were tested. For comparative purposes, Table 2 also gives the stability of a terbium complex TbL4 of the prior art corresponding to the following formula: […]

[4] = Tris 50 mM - Serum 50%, pH = 7.0
[5] = Tris 0.1M - EDTA 10 mM, pH = 7.0
[6] = Tris 0.1M - KF 400 mM, pH = 7.0

Row | SMILES | Absorption λabs [1] | Emission τ (luminescence lifetime) ([2]; D2O) | Emission φ (quantum luminescence yield) ([2]; D2O) | Emission τ (luminescence lifetime) ([2]; H2O) | Emission φ (quantum luminescence yield) ([2]; H2O) | τ ([3]; H2O, estimated error ±5%) | τ ([3]; Phosphate 0.1M, pH = 7.0) | τ [3, 4] | τ [3, 5] | τ [3, 6] | τ ([3]; Tris 0.1M, pH = 7.0) | stability [3]
1 | CCOP(=O)([O-])CN(CC(=O)[O-])Cc1cc(C#Cc2ccc(C(=O)NCCCC(=O)[O-])c3ccccc23)cc(CN(CC(=O)[O-])CP(=O)([O-])OCC)n1.[Eu+3].[Na+].[Na+] [Eu(I-1)] | 266 nm and 349 nm | 2.4 ms | 24% | 1.5 ms | 16% |  |  |  |  |  |  | 
2 | CCOP(=O)([O-])CN(CC(=O)[O-])Cc1cc(C#Cc2ccc(C#CCCCCC(=O)[O-])c3ccccc23)cc(CN(CC(=O)[O-])CP(=O)([O-])OCC)n1.[Eu+3].[Na+].[Na+] [Eu(I-2)] | 265 nm and 347 nm | 2.4 ms | 26% | 1.6 ms | 17% |  |  |  |  |  |  | 
3 | CCOP(=O)([O-])CN(Cc1cc(C#Cc2ccc(C(=O)NCCCC(=O)[O-])c3ccccc23)cc(CN(CP(=O)([O-])OCC)CP(=O)([O-])OCC)n1)CP(=O)([O-])OCC.[Eu+3].[Na+].[Na+] [Eu(I-3)] | 270 nm and 352 nm | 2.5 ms | 22% | 1.7 ms | 18% |  |  |  |  |  |  | 
4 | CCOP(=O)([O-])CN(Cc1cc(C#Cc2ccc(C#CCCCCC(=O)[O-])c3ccccc23)cc(CN(CP(=O)([O-])OCC)CP(=O)([O-])OCC)n1)CP(=O)([O-])OCC.[Eu+3].[Na+].[Na+] [Eu(I-4)] | 268 nm and 350 nm | 2.5 ms | 24% | 1.6 ms | 17% |  |  |  |  |  |  | 
5 | CCOP(=O)([O-])CN(CC(=O)[O-])Cc1cc(C#Cc2ccc(C(=O)NCCCC(=O)[O-])c3ccccc23)cc(CN(CC(=O)[O-])CP(=O)([O-])OCC)n1.[Na+].[Na+].[Tb+3] [Tb(I-1)] | 268 nm and 348 nm | 3.1 ms | 46% | 2.8 ms | 35% | 2.8 ms | 2.7 ms | 2.6 ms | 2.6 ms | 2.6 ms | 2.7 ms | 
6 | CCOP(=O)([O-])CN(CC(=O)[O-])Cc1cc(C#Cc2ccc(C#CCCCCC(=O)[O-])c3ccccc23)cc(CN(CC(=O)[O-])CP(=O)([O-])OCC)n1.[Na+].[Na+].[Tb+3] [Tb(I-2)] | 270 nm and 349 nm | 3.2 ms | 45% | 2.6 ms | 32% | 2.6 ms | 2.5 ms | 2.4 ms | 2.4 ms | 2.5 ms | 2.5 ms | 
7 | CCOP(=O)([O-])CN(Cc1cc(C#Cc2ccc(C(=O)NCCCC(=O)[O-])c3ccccc23)cc(CN(CP(=O)([O-])OCC)CP(=O)([O-])OCC)n1)CP(=O)([O-])OCC.[Na+].[Na+].[Tb+3] [Tb(I-3)] | 272 nm and 353 nm | 3.4 ms | 42% | 3.1 ms | 38% | 3.1 ms | 2.9 ms | 3.0 ms | 3.0 ms | 2.9 ms | 3.0 ms | excellent stability
8 | CCOP(=O)([O-])CN(Cc1cc(C#Cc2ccc(C#CCCCCC(=O)[O-])c3ccccc23)cc(CN(CP(=O)([O-])OCC)CP(=O)([O-])OCC)n1)CP(=O)([O-])OCC.[Na+].[Na+].[Tb+3] [Tb(I-4)] | 272 nm and 352 nm | 3.5 ms | 41% | 3.2 ms | 36% | 3.2 ms | 3.0 ms | 3.0 ms | 3.1 ms | 3.0 ms | 3.1 ms | excellent stability

Reference: patent publication US9388202B2, “Luminescent probes for biological labeling and imaging, method for preparing same” (CENTRE NATIONAL DE LA RECHERCHE SCIENTIFIQUE, priority 2011, dated 2016)
